Measurements published in patent US20250127775A1, “METHOD OF INDUCING DENDRITIC AND SYNAPTIC GENESIS IN NEURODE[…] DISEASES” (priority 2018, published 2025).

Legend:
cortical rat neurons = assay: Dendrite and synaptic connections of rat cortical neurons after exposure to tryptamines (FIG. 2); format: cell-based; conditions: 24 hours of exposure, FIG. 2 left to right
Text: The effect is dramatic and fast even with very small doses of the compounds which is a desirable profile for a therapeutic molecule. Looking at FIG. 2 from left to right, it is apparent that LSD>DMT>DOI>Vehicle with regards to dendritic and synaptic generation. Potential therapeutics that can be used in the present invention are tryptamines such as tryptamines and phenethylamines selected from the group, N, N-dimethyltryptamine, 5-methoxy-N, N-dimethyltryptamine, Ketamine, noribogaine, psilocin 3,4-methylenedioxymethamphetamine, mescaline, psilocin, and psilocybin. The dose concentration will vary by molecule type but can range for 0.00001 to 250 milligrams to kilograms (mg/kg) of body weight with 0.01 to 50 mg/kg being preferred.

rat neurons = assay: SEM images of rat neurons after exposure to toxic amyloid peptide (FIG. 1); format: cell-based; conditions: exposure for 4 days to 250 micro molar toxic peptide
Text: At this resolution one can see copious dendritic structures, the round dark circles. The resolution is not high enough to visualize synaptic connections. The image labeled A is of rat neurons after exposure for 4days to 250 micro molar concentrations of toxic peptide. […] This model emulates what is seen in the human versions of AD disease.

CN(C)CCc1c[nH]c2ccccc12 [DMT, N, N-dimethyltryptamine]
rank order with regards to dendritic and synaptic generation (cortical rat neurons): LSD>DMT>DOI>Vehicle

COc1cc(CC(C)N)c(OC)cc1I (stereo not drawn) [DOI]
rank order with regards to dendritic and synaptic generation (cortical rat neurons): LSD>DMT>DOI>Vehicle

A 42 amyloid proteins: toxic amyloid protein used to compromise rat neurons, dendrites and synaptic connections
degradation of the dendrites (and synaptic connections) (rat neurons): significant degradation of the dendrites
